Reference: patent US8680062B2, “System for delivering therapeutic agents into living cells and cells nuclei” (Deliversir Ltd., priority 2004, dated 2014)

Experiments:
rTh polymerase = target: T1, rTh polymerase (Thermus thermophilus, UniProt P52028); assay: PCR polymerase assay of modified nucleotide as substrate in place of dTTP; type: biochemical; conditions: typical PCR conditions, Taq, Vent, Pfu and rTh polymerases tested
T1 construct: purchased
From the text: The modified nucleotides described above were tasted in polymerase assays to determine their compatibility as substrates for polymerase reactions. The modified nucleotide Compound 7 (modified dUTP), served as a substrate in place of deoxythymidinetriphosphate, dTTP, for thermostable DNA polymerases using typical PCR conditions. Commercially available thermostable DNA polymerases from […] were used in the assays: Taq from Thermus aquaticus, Vent from Thermococcus litoralis, Pfu from Pyrococcus furiosus, and rTh from Thennus thennophilus.

DNA polymerase I = DNA polymerase I (Escherichia coli, UniProt P00582); conditions: 90 minute time point; 5.4 Kb plasmid, 15° C., 3H-dGTP counting
Sequence of DNA polymerase I (P00582 whole entry): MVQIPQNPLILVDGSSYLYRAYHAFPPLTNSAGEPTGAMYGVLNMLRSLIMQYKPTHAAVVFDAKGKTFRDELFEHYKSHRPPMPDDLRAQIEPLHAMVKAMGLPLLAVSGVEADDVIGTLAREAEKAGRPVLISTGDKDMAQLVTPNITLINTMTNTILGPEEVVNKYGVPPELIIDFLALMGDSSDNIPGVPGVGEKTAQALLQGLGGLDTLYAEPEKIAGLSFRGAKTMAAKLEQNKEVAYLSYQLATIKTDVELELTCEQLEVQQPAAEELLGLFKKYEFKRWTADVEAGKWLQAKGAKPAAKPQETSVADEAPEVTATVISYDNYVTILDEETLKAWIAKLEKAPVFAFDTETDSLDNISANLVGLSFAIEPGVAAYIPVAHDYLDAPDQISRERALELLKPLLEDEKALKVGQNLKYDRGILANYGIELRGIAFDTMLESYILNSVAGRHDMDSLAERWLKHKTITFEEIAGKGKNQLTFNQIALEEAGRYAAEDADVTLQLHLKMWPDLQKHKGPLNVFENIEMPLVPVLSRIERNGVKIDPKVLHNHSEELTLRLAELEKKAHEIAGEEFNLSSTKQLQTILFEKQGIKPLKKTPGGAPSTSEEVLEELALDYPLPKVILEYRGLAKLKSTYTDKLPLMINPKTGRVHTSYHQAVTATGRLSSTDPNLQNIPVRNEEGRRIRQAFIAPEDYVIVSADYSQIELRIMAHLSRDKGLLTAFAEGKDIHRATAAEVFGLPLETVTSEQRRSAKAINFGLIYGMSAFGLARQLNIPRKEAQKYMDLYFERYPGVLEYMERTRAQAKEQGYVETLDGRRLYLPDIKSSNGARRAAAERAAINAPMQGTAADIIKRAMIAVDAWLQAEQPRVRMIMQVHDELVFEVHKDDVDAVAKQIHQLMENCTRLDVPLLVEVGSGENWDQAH
Experimental: At each time point of interest, 2 μl from the reaction mixture were withdrawn, spotted on glass fiber filters (GF/C), washed once with 10% trichloroacetic acid (TCA) and twice with 5% TCA, and with alcohol and was thereafter dried. The filters were loaded to a liquid scintillation counter for measurements of the progression of the polymerase reaction and the relative level of incorporation.

T1 sequence (P52028 whole entry): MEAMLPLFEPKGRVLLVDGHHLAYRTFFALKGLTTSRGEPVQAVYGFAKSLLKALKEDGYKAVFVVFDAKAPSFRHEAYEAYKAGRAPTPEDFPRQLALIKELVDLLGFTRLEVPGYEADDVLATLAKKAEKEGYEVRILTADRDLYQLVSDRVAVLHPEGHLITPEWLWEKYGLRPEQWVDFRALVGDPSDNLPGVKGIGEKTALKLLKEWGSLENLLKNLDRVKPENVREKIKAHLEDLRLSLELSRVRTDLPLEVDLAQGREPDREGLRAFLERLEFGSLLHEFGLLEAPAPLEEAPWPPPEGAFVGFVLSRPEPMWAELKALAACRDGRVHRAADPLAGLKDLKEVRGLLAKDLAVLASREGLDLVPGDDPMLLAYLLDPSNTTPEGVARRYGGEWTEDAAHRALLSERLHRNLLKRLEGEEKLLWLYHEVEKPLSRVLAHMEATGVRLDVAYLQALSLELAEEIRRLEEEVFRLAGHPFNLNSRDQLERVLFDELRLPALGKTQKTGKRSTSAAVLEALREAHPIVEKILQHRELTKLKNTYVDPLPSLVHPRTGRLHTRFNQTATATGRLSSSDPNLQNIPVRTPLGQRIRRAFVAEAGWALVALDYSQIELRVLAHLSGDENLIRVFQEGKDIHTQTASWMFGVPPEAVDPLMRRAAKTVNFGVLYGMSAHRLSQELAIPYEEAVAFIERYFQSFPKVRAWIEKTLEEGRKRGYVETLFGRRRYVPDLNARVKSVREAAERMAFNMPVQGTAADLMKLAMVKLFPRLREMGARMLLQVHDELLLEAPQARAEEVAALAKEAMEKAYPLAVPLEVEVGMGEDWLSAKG

Molecule | incorporation into PCR product as polymerase substrate (rTh polymerase) | relative levels of incorporation of the modified deoxynucleotides (DNA polymerase I) [%]
NC/C=C/c1cn(C2CC(O)C(COP(=O)(O)OP(=O)(O)OP(=O)(O)O)O2)c(=O)[nH]c1=O (stereo not shown) [Compound 7, 5′-triphosphate-5-(3-aminopropen-1-yl)deoxyuridine] | incorporation into a 561 base pair product only with rTh polymerase | 
NCCCCCCNc1ncnc2c1ncn2[C@H]1C[C@H](O)[C@@H](COP(=O)(O)OP(=O)(O)OP(=O)(O)O)O1 [N^6-aminohexyl dATP, reference compound] |  | 70
urocanic acid modified dCTP [Compound 11] |  | 44
urocanic acid modified dUTP [Compound 8] |  | 54
